# Laboratory results from patent publication US20220296566A1, “COMBINATION PRODUCT CONTAINING LIMONOID COMPOUND AND ALPHA-GLUCOSIDASE INHIBITOR” (ZHEJIANG YANGSHENGTANG INSTITUTE OF NATURAL MEDICATION CO., …, priority 2019, published 2022).
# Key:
# STZ mice = assay: Blood glucose in STZ mouse pancreatic islet β-cell injury model (Example 3); type: in vivo; details: STZ ICR mice; single agent 0.1 g/kg per day by gavage, two weeks; 1 h after last administration; mean ± SD
# From the text: Effects of limonoid compound, acarbose or combination thereof on blood glucose in mouse pancreatic islet (β-cell injury model In this example, a mouse pancreatic islet (β-cell injury model was established by modeling ICR mice with streptozotocin (STZ) (Li Nan et al., Protective effect of pine pollen on kidney damage in diabetic nephropathy mice, Science and Technology Review, 2014, 32 (4/5): 95-99), and used to complete the evaluation of hypoglycemic effect in animals (this model could simulate pancreatic islet (β-cell damage state of type I and type II diabetics). The limonoid compound was selected from the group consisting of […], and […] glycoside, and acarbose single administration group, […] single administration group, […] single administration group, […] glycoside singe administration group, and respective combination thereof with acarbose administration groups were set. Conditions of experimental feeding: ICR mice (20±2 g), aged 6 weeks, purchased from Zhejiang Academy of Medical Sciences, and subjected to experimental feeding after 7 days of preliminary feeding. […] The data were expressed as mean and standard deviation. The data before and after were analyzed by t-test, and P<0.05 was considered statistically significant.
# db/db mice = assay: Serum leptin by Elisa in db/db mice (Example 2); type: in vivo; details: single agent 0.04 g/kg per day by gavage, two weeks, mean ± SD
# From the text: Effects of limonoid compound, acarbose or combination thereof on blood glucose and leptin in mouse type II diabetes model
# In the present example, db/db mice (line name BKS.Cg-Dock7^m+/+Lepr^db/Nju) were used to perform hypoglycemic efficacy evaluation test of animals (blood glucose level and leptin). The limonoid compound was selected from obacunone, isoobacunoic acid and obacunone glycoside, and acarbose single administration group, obacunone single administration group, isoobacunoic acid single administration group, obacunone glycoside single administered group, and respective combination thereof with acarbose administration groups were set.
# Conditions for experimental feeding: as type II diabetes model mice, 6-week-old SPF-grade db/db mice were purchased from the Nanjing Model Biology Institute, and subjected to experimental feeding after 7 days of preliminary feeding. It should be noted that the conditions for raising the mice were as follows: the temperature was 23±1° C., the humidity was 55±10%, the lights were turned on between 7 am and 7 pm (the lights were turned off at other time), and the mice were allowed to freely take in water and feed. […]
smiles,measurement,setting,value
"C[C@H]1O[C@H](O[C@H]2[C@H](O)[C@@H](O)[C@@H](O[C@H]3[C@H](O)[C@@H](O)C(O)O[C@@H]3CO)O[C@@H]2CO)[C@H](O)[C@@H](O)[C@@H]1N[C@H]1C=C(CO)[C@@H](O)[C@H](O)[C@H]1O (some centres unmarked) [Acarbose, acarbose]",Blood glucose value,STZ mice,20.6 ± 4.5 mmol/L
same,Leptin,db/db mice,35.57 ± 2.98 pg/mL
